# From the supplement of paper PMC11061612
# Assays:
# Assay in all cases: combination Emax (second highest fraction inhibited in the dose matrix, 72 h); higher = more inhibition; extreme values may be limits of the assay
# [1] = test system: MHH-ES-1 (Ewing's Sarcoma)
# Summary of the method: (§1)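 After 24 hours at 37°C and 5% CO2 in 1536-well plates, cells in DMEM/F12 or RPMI plus 10% FBS received two-drug dose matrices for 72 hours. Viability came from CellTiter-Glo 2.0 luminescence and was scaled as inhibition, anchored at 0 by vehicle wells and at 1 by blank wells. Combination Emax is taken as the second-highest inhibition in the matrix, and Bliss excess as the observed combination effect less EA + EB − EA·EB, with EA and EB the single-agent effects.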
# [2] = test system: GCT (Other Solid Carcinomas)
# Summary of the method: as §1
# [3] = test system: CA46 (Burkitt's Lymphoma)
# Summary of the method: as §1
# [4] = test system: CGTH-W-1 (Thyroid Gland Carcinoma)
# Summary of the method: as §1
# [5] = test system: NCI-H441 (Lung Adenocarcinoma)
# Summary of the method: as §1
# [6] = test system: KYSE-140 (Esophageal Squamous Cell Carcinoma)
# Summary of the method: as §1
# [7] = test system: A2780 (Ovarian Carcinoma)
# Summary of the method: as §1
# [8] = test system: JHH-2 (Hepatocellular Carcinoma)
# Summary of the method: as §1
# [9] = test system: LS-411N (Colorectal Carcinoma)
# Summary of the method: as §1
# [10] = test system: HCC1395 (Breast Carcinoma)
# Summary of the method: as §1
# HCC70 (Breast Carcinoma) = test system: HCC70 (Breast Carcinoma)
# Summary of the method: as §1
# [11] = test system: LU-165 (Small Cell Lung Carcinoma)
# Summary of the method: as §1
# [12] = test system: SW620 (Colorectal Carcinoma)
# Summary of the method: as §1
# [13] = test system: G-402 (Other Solid Carcinomas)
# Summary of the method: as §1
# [14] = test system: MDA-MB-436 (Breast Carcinoma)
# Summary of the method: as §1
# [15] = test system: GA-10 (Burkitt's Lymphoma)
# Summary of the method: as §1
# [16] = test system: CESS (Acute Myeloid Leukemia)
# Summary of the method: as §1
# [17] = test system: SK-HEP-1 (Hepatocellular Carcinoma)
# Summary of the method: as §1
# RH-41 (Rhabdomyosarcoma) = test system: RH-41 (Rhabdomyosarcoma)
# Summary of the method: as §1
# EB2 (Burkitt's Lymphoma) = test system: EB2 (Burkitt's Lymphoma)
# Summary of the method: as §1
SMILES,combination Emax [1],combination Emax [2],combination Emax [3],combination Emax [4],combination Emax [5],combination Emax [6],combination Emax [7],combination Emax [8],combination Emax [9],combination Emax [10],combination Emax (HCC70 (Breast Carcinoma)),combination Emax [11],combination Emax [12],combination Emax [13],combination Emax [14],combination Emax [15],combination Emax [16],combination Emax [17],combination Emax (RH-41 (Rhabdomyosarcoma)),combination Emax (EB2 (Burkitt's Lymphoma))
"CN(C)CCCOc1ccc(-c2ccc3ncc4c(c3c2)n(C2CCOCC2)c(=O)n4C)cn1 [AZD0156] + C=CCn1c(=O)c2cnc(Nc3ccc(N4CCN(C)CC4)cc3)nc2n1-c1cccc(C(C)(C)O)n1 [AZD1775] (first compound max 1 µM, partner max 1 µM)",0.671,0.413,0.636,0.188,0.329,0.844,0.79,0.53,0.641,0.682,0.542,0.38,0.495,0.363,0.195,0.988,0.929,0.469,0.948,0.841
"CN(C)CCCOc1ccc(-c2ccc3ncc4c(c3c2)n(C2CCOCC2)c(=O)n4C)cn1 [AZD0156] + CCN(CCO)CCCOc1ccc2c(Nc3cc(CC(=O)Nc4cccc(F)c4)[nH]n3)ncnc2c1 [AZD2811] (first compound max 1 µM, 7x7, partner max 1 µM)",0.55,0.161,0.291,0.196,0.112,0.288,0.609,0.287,0.137,0.193,0.604,0.114,0.158,0.532,0.0531,0.808,0.25,0.255,0.235,0.416
"CN(C)CCCOc1ccc(-c2ccc3ncc4c(c3c2)n(C2CCOCC2)c(=O)n4C)cn1 [AZD0156] + C[C@@H]1COCCN1C2=NC(=NC(=C2)C3(CC3)[S@](=N)(=O)C)C4=C5C=CNC5=NC=C4 [AZD6738] (first compound max 1 µM, 7x7, partner max 10 µM)",0.638,0.231,0.746,0.35,0.435,0.934,0.81,0.597,0.808,0.8,0.829,0.233,0.566,0.534,0.23,1,0.923,0.391,0.874,0.774
"CN(C)CCCOc1ccc(-c2ccc3ncc4c(c3c2)n(C2CCOCC2)c(=O)n4C)cn1 [AZD0156] + O=C(c1cc(Cc2n[nH]c(=O)c3ccccc23)ccc1F)N1CCN(C(=O)C2CC2)CC1 [Olaparib] (first compound max 3 µM, partner max 3 µM)",0.801,0.282,0.567,0.214,0.328,0.113,0.595,0.319,0.349,0.315,0.359,0.21,0.337,0.41,0.205,0.741,0.376,0.332,0.586,0.496
"C=CCn1c(=O)c2cnc(Nc3ccc(N4CCN(C)CC4)cc3)nc2n1-c1cccc(C(C)(C)O)n1 [AZD1775] + C1CN(CCC1(C(=O)N[C@@H](CCO)C2=CC=C(C=C2)Cl)N)C3=NC=NC4=C3C=CN4 [Capivasertib] (first compound max 3 µM, partner max 3 µM)",0.833,0.623,0.843,0.211,0.454,0.844,0.873,0.625,0.878,0.777,0.754,0.536,0.8,0.619,0.41,0.964,0.874,0.503,0.801,0.822
"C=CCn1c(=O)c2cnc(Nc3ccc(N4CCN(C)CC4)cc3)nc2n1-c1cccc(C(C)(C)O)n1 [AZD1775] + C[C@@H]1COCCN1C2=NC(=NC(=C2)C3(CC3)[S@](=N)(=O)C)C4=C5C=CNC5=NC=C4 [AZD6738] (first compound max 1 µM, partner max 10 µM)",0.714,0.552,0.739,0.434,0.536,0.967,0.938,0.737,0.77,0.896,0.898,0.48,0.83,0.674,0.478,1,0.937,0.65,0.995,0.88
"C=CCn1c(=O)c2cnc(Nc3ccc(N4CCN(C)CC4)cc3)nc2n1-c1cccc(C(C)(C)O)n1 [AZD1775] + O=C(c1cc(Cc2n[nH]c(=O)c3ccccc23)ccc1F)N1CCN(C(=O)C2CC2)CC1 [Olaparib] (first compound max 1 µM, partner max 10 µM)",0.886,0.501,0.53,0.193,0.472,0.733,0.76,0.574,0.417,0.719,0.56,0.342,0.603,0.41,0.271,0.981,0.916,0.462,0.953,0.848
"CCN(CCO)CCCOc1ccc2c(Nc3cc(CC(=O)Nc4cccc(F)c4)[nH]n3)ncnc2c1 [AZD2811] + C=CCn1c(=O)c2cnc(Nc3ccc(N4CCN(C)CC4)cc3)nc2n1-c1cccc(C(C)(C)O)n1 [AZD1775] (first compound max 1 µM, partner max 1 µM)",0.734,0.292,0.489,0.217,0.343,0.826,0.82,0.574,0.641,0.682,0.589,0.333,0.461,0.526,0.235,0.992,0.922,0.355,0.961,0.77
"Cc1c2c(nn1C)CSCc1cc(n(C)n1)CSc1cc(c3ccccc3c1)OCCCc1c(C(=O)O)n(C)c3c-2c(Cl)ccc13 [AZD5991] + CN(C)CCCOc1ccc(-c2ccc3ncc4c(c3c2)n(C2CCOCC2)c(=O)n4C)cn1 [AZD0156] (first compound max 1 µM, 7x7, partner max 1 µM)",0.652,0.502,0.294,0.19,0.246,0.488,0.682,–,0.136,0.537,0.86,0.286,0.294,0.965,0.167,0.776,0.233,0.281,1,0.42
"CS(=O)(=O)CCNCc1ccc(-c2ccc3ncnc(Nc4ccc(OCc5cccc(F)c5)c(Cl)c4)c3c2)o1 [Lapatinib] + NC1(c2ccc(-c3nc4ccn5c(=O)[nH]nc5c4cc3-c3ccccc3)cc2)CCC1 [MK-2206] (first compound max 10 µM, 7x7, partner max 10 µM)",0.905,–,–,0.894,0.473,–,0.909,0.9,0.295,0.969,0.923,0.453,0.889,–,0.461,–,–,0.87,–,0.834
"CCc1c2c(nc3ccc(O)cc13)-c1cc3c(c(=O)n1C2)COC(=O)[C@]3(O)CC [SN-38] + O=C(c1cc(Cc2n[nH]c(=O)c3ccccc23)ccc1F)N1CCN(C(=O)C2CC2)CC1 [Olaparib] (first compound max 0.3 µM, 7x7, partner max 10 µM)",0.978,0.753,–,0.768,0.709,–,0.777,0.618,0.304,0.518,0.455,0.478,0.822,0.829,0.546,–,0.989,0.665,–,0.932
"Cc1nc(-c2cn3c(n2)-c2ccc(-c4cnn(C(C)(C)C(N)=O)c4)cc2OCC3)n(C(C)C)n1 [Taselisib] + O=C(Nc1ccc2[nH]nc(-c3ccncc3)c2c1)[C@@H]1CCN(CC(=O)N2CCN(c3ccc(-c4ncccn4)cc3)CC2)C1 [SCH772984] (first compound max 10 µM, 7x7, partner max 5 µM)",0.609,–,–,0.977,0.562,–,0.976,0.971,–,0.606,0.943,0.475,0.764,–,0.469,–,–,0.389,–,0.563
"CC1(C)CCC(CN2CCN(c3ccc(C(=O)NS(=O)(=O)c4ccc(NCC5CCOCC5)c([N+](=O)[O-])c4)c(Oc4cnc5[nH]ccc5c4)c3)CC2)=C(c2ccc(Cl)cc2)C1 [Venetoclax] + CS(=O)(=O)CCNCc1ccc(-c2ccc3ncnc(Nc4ccc(OCc5cccc(F)c5)c(Cl)c4)c3c2)o1 [Lapatinib] (first compound max 1 µM, 7x7, partner max 10 µM)",0.371,–,–,0.115,0.165,–,0.478,0.395,–,0.826,0.343,0.305,0.184,–,0.227,–,–,0.308,–,0.348
